Data published in US8750968B2, “Device and procedure for the diagnosis or diagnostic preparation and/or therapy monitoring of inflammatory diseases such as rheumatoid arthritis” (MIVENION GmbH, priority 2007, dated 2014).

Tests used:
[1] = system: activated rheumatoid arthritis; experiment: clinical examination and patient report after four weeks of intensive therapy; type: in vivo, human; conditions: four weeks after start of therapy
Method: Patient, weight 59 kg. Patient with an acute progression of rheumatoid arthritis and damage to the joints DIP-R3, PIP-R3 and PIP-R4. The patient was examined twice: the current examination as well as four weeks before the current examination. An intensive therapy using Infliximab® was administered upon the diagnosis of an activated rheumatoid arthritis four weeks before the current examination.

[2] = system: activated rheumatoid arthritis; experiment: activity value AKT from ICG fluorescence imaging of both hands, two examinations four weeks apart; type: in vivo, human; conditions: for activity value AKT: current examination vs four weeks before, values less than 1 indicate a decrease in disease activity
Method: A correction factor (CF) is determined after the calculation of the average AUCRef value above the fingernails. The quotient of the mean AUCRef value and the correction factor (CF) should result in a reference factor (RF) with a value of 100. CF=mean AUCRef/100(RF) 100(RF)=mean AUCRef/CF
Each of the obtained 28 AUC values of the interphalangeal articulations of the hands is processed by mathematical correlation. By dividing the AUC values by CF, corrected AUC values (AUCcorr) are obtained for the ROI above the respective interphalangeal articulations of the hands. AUCcorr=AUC/CF
The inventive process is further characterized by the layout of a method that allows the comparison of different examinations on the same patient. This method should compensate the different levels of the fluorescence signal intensity that result from the variable pharmacokinetics of ICG. The correction factor (CF) is calculated for each measurement leading to the formation of the signal intensity curve. Any number or any type of examinations can be assigned to one another by means of the CF of the ROI above the fingernails. Due to the division of the AUCcorr values from an arbitrary examination by CF, they can be directly compared with other AUCcorr values from previous examinations. The equation for calculating an arbitrary examination n is as follows: AUCcorr(n)=AUC(n)/CF(n)
The value AKT for the time-dependent disease activity results from the possibility of direct comparability of the corrected AUC values. The formula for calculating the activity value AKT of any two examinations over time is as follows: AKT=AUCcorr(n)/AUCcorr(n-1)
Values greater than 1 point out an increasing disease activity, respectively a deterioration of the result, whereas values less than 1 indicate an enhancement of the result, respectively a decrease in disease activity.
Methods and implementation: Intravenous injection of indocyanine green (ICG pulsion) at a dose of 0.2 mg/kg. Bolus injection for about 5 s, the measurement time 0 corresponds to the termination of the Injection. Measuring device: simultaneous measurement of both the hands, illumination surface about 20 cm×30 cm, LEDs, excitation wavelength of 775 nm, detection >800 nm (2 long-pass interference filters, each of whose λ50%=800 nm), iCCD camera with standard lens (water/Peltier-type cooling).
Data collection (image capture) for both the hands up to 10 minutes after the injection with a cycle time of 3 s (20 frames/min). […]
The activity values AKT are calculated by dividing each of the corrected results of the […] examination by each of the corresponding corrected results of the second examination respectively.

Infliximab [Infliximab®]
subjective perception of the disease (morning stiffness, pain sensations) ([1]; patient report): improvement in the subjective perception of the disease
clinical examination result (inflammation of the diseased joints) ([1]; patient): essentially unchanged result with only a low-level decline in the inflammation of the diseased joints
activity value AKT ([2]; joint DIP-R3): 0.71
activity value AKT ([2]; joint PIP-R3): 0.65
activity value AKT ([2]; joint printed PIP-84): 0.911
effectiveness of the ongoing intensified therapy ([2]; patient, after four weeks of therapy): could be quantitatively demonstrated just after four weeks
